In patent US7074770B1, “Method of DNA vaccination” (SmithKline Beecham Corporation, priority 1998, dated 2006):
Entries after “also recorded” stand apart in the source; their conditions may differ. Read-outs that look alike come from different tables or passages of the source.

B1: GM-CSF: GM-CSF given as adjuvant with DNA immunisation (protein, UniProt P01587 18-141, looked up)
Granulocyte-macrophage …: APTRSPITVTRPWKHVEAIKEALNLLDDMPVTLNEEVEVVSNEFSFKKLTCVQTRLKIFEQGLRGNFTKLKGALNMTASYYQTYCPPTPETDCETQVTTYADFIDSLKTFLTDIPFECKKPGQK

What was measured:
[1] = tested on: splenocytes re-stimulated with NP peptide; assay type: in vivo, C57BL/6 mice; conditions: pVAC1.PR gene gun
[2] = tested on: EL4 cells pulsed with H-2 Db-restricted NP peptide; assay: Lytic CTL response after gene gun NP DNA immunisation (europium release); assay type: in vivo, C57Bl/6 mice; conditions: gene gun NP plasmid 10 ng; tucaresol s.c. 1 mg or oral 15 mg/kg x5 days; FIG. 9
Protocol: C57B1/6 mice were immunised with plasmid DNA encoding the influenza virus nucleoprotein with or without tucaresol given subcutaneously (FIG. 9a) or orally (FIG. 9b). Splenocytes were restimulated in-vitro with A/PR8/34 virus. Standard europium release techniques were used to determine specific lysis of MHC matched target cells pulsed with H-2 D^b-restricted NP peptide.
C57BI/6 mice were immunised with plasmid DNA (10 ng) encoding the influenza virus nucleoprotein (NP) with and without tucaresol given sub-cutaneously (sc). Mice were killed 14 days post-immunisation and restimulated in-vitro (5 days) with irradiated splenocytes pulsed with virus (A/PR8/34). Standard europium release techniques were used to determine specific lysis of MHC-matched target cells (EL4 cells) pulsed with H-2 D^b-restricted NP peptide. Non-specific lysis was less than 15% for all controls. Tucaresol was given subcutaneously (1 mg) at the site of intrepidermal gene-gun immunisation.
C57B1/6 mice were immunised with plasmid DNA (10 ng) encoding the influenza virus nucleoprotein (NP) with and without tucaresol given orally. Mice were killed 14 days post-immunisation and restimulated in-vitro (5 days) with irradiated splenocytes pulsed with virus (A/PR8/34). Standard europium release techniques were used to determine specific lysis of EL4 cells pulsed with H-2D^b-restricted NP peptide. […]

[3] = tested on: Jk-A2/kb target cells pulsed with M.hsp65 peptide; assay type: in vivo, HLA A2 transgenic mice
[4] = tested on: mycobacterial hsp65 (M.hsp65); assay type: in vivo, mice
CD4 Th-cells = conditions: previously reported (22); cited from earlier work
S6C-E4 tumour cells = assay: Tumour outgrowth inhibition in vivo after EBNA-4 plasmid immunisation; parameters: species or system ACA mice; conditions: i.m. 40 μg E4 x3, tucaresol 200 μg s.c. days 1-4; challenge with S6C-E4 s.c.; FIG. 7
Protocol: Groups of ACA mice were immunised three times with p3, E4 or E4,T, and were subsequently challenged with […] S6C tumour cells. Mice were sacrificed when tumour diameter reached 20 mm.
Epstein Barr virus has been implicated in some cancers. We analysed the effect of tucaresol on tumour outgrowth inhibition in vivo as a result of pDNA vaccination with a plasmid expressing EBNA-4 (FIG. 7). Mice were immunised by intramuscular injection with 40 μg of either control mock plasmid pCDNA3 (P3), plasmid expressing EBNA-4 (E4) or plasmid expressing EBNA-4 followed 1, 2, 3 and 4 days later with administration of 200 μg of tucaresol s.c.—i.e. 800 μg total tucaresol per mouse (E4T). This immunisation schedule was repeated 1 month and 2 months after the initial immunisation. Two weeks after the last immunisation mice were challenged with […] S6C-E4 tumour cells s.c. Mice were sacrificed when the tumour reached a 20 mm diameter.

[5] = tested on: lymph node T cells (response to ovalbumin peptide); assay: T-cell priming after gene gun DNA immunisation (pVAC1.Ova) with conventional adjuvants; assay type: in vivo, mice; conditions: gene gun pVAC1.Ova with or without adjuvants given s.c.; 3 days later
Description: Proliferation of lymph node T cells in response to pDNA or DNA encoding ovalbumin (PVAC1.Ova) in isolation and in combination with adjuvants LPS, CFA, GM-CSF and Heat-Killed Listeria monocytogenes (HKLM).
Lymphoid cells from TCR-transgenic mice, expressing a receptor specific for an ovalbumin antigen were transferred into normal syngeneic mice. These mice were then immunised subcutaneously (by means of gene gun) with plasmid DNA (pVAC1) or with plasmid DNA construct encoding ovalbumin (pVAC1.Ova) with or without adjuvants given subcutaneously. Three days later, regional lymph node cells were removed and their proliferative response to ovalbumin peptide was measured by means of incorporation of tritiated thymidine into DNA. This provides a measure of the degree of specific T-cell priming that occurred in vivo in response to immunisation. […] However, in contrast to the conventional peptide immunisation, none of the adjuvants were able to enhance this response to DNA immunisation.

Molecule | CTL cytokine response (IFNγ positive cells per 10e6 splenocytes) ([1]; tucaresol oral gavage 15 mg/kg daily for 5 days) | CTL cytokine response (IFNγ positive cells per 10e6 splenocytes) ([1]; tucaresol s.c. 2×1 mg at site of DNA vaccination) | lytic CTL response (specific lysis) [2] | CTL activity against target cells pulsed with the cognate M.hsp65 epitope ([3]; immunised twice, splenocytes stimulated with peptide, FIG. 6) | lytic activity against Jk-A2/kb cells unpulsed or pulsed with control influenza peptide ([3]; mouse, in vivo) | IgG2a anti-M.hsp65 antibody response (Th1 associated) ([4]; FIG. 3b) | IgG1 anti-M.hsp65 antibody response (Th2 associated) ([4]; compared to p3 immunised mice, FIG. 3c) | specific antibody response with control plasmid ([4]; control plasmid p3 and tucaresol (p3, T)) | anti-M.hsp65 antibody (IgG) titres ([4]; i.m. 20 μg p3M.65, tucaresol 1 mg s.c. simultaneously or cytokine plasmids equimolar, FIG. 3a) | CD4 Th-cell response (CD4 Th-cells) | tumour outgrowth inhibition (S6C-E4 tumour cells) | T-cell priming in response to DNA immunisation [5]
O=Cc1c(O)cccc1OCc1ccc(C(=O)O)cc1 [tucaresol, 4-(2-formyl-3-hydroxyphenoxymethyl)benzoic acid] | doubling of the response | small but significant increase | Enhances | high CTL activity; also recorded: markedly enhanced | much lower | significantly (P=0.003) increased; also recorded: strongly enhanced | did also induce | no increase in the specific antibody response | markedly increased; also recorded: comparable to the effect of the GM-CSF plasmid | enhanced CD4 Th-cell response, selectively favouring a Th 1-type profile over Th 2 | significantly enhances; also recorded: markedly enhanced | 
B1 |  |  |  |  |  |  |  |  |  |  |  | failed to enhance the response
